Source: patent US20230141600A1, “IMIDAZOPYRAZINE DERIVATIVES” (priority 2020, published 2023)
Counter-ions that a name gives are not always drawn. Like-named read-outs stand apart in the source and are kept apart here.

Tested on: Acinetobacter baumannii ATCC17961
Assay: 90% growth inhibitory concentration (IC90) determination, antimicrobial susceptibility testing
Type: cell-based
Conditions: Acinetobacter baumannii, ATCC17961, 16 h, read-out: ATCC 17961 IC90
Description: Antimicrobial Susceptibility Testing:
90% Growth Inhibitory Concentration (IC90) Determination
The in vitro antimicrobial activity of the compounds was determined according to the following procedure:
The assay used a 10-points Iso-Sensitest broth medium to measure quantitatively the in vitro activity of the compounds against Acinetobacter baumannii ATCC17961 and ATCC17978.
Stock compounds in DMSO were serially twofold diluted (e.g. range from 50 to 0.097 μM final concentration) in 384 wells microtiter plates and inoculated with 49 μl the bacterial suspension in Iso-Sensitest medium to have a final cell concentration of ˜5×10^(5) CFU/ml in a final volume/well of 50 ul/well. Microtiter plates were incubated at 35±2° C.
Bacterial cell growth was determined with the measurement of optical density at λ=600 nm each minutes over a time course of 16 h. Growth inhibition was calculated during the logarithmic growth of the bacterial cells with determination of the concentration inhibiting 50% (IC50) and 90% (IC90) of the growth.
Table 2 provides the 90% growth inhibitory concentrations (IC90) in micromoles per liter of the compounds of present invention obtained against the strain Acinetobacter baumannii ATCC17961.

[1] = 90% growth inhibition, Iso-Sensitest broth, OD 600 nm over 16 h, 35±2° C.

| SMILES | IC90 [1] | IC90 |
| --- | --- | --- |
| Cc1cc(Nc2nccn3c(-c4cn(C)nc4C(F)(F)F)cnc23)ccc1C(=O)N1CCN(C(=O)C[N+](C)(C)C)CC1 [Example 111, Trimethyl-[2-[4-[2-methyl-4-[[3-[1-methyl-3-(trifluoromethyl)pyrazol-4-yl]imidazo[1,2-a]pyrazin-8-yl]amino]benzoyl]piperazin-1-yl]-2-oxo-ethyl]ammonium Formate] | 2.8 µM | – |
| CCc1cc(Nc2nccn3c(-c4ccc(OC)c(F)c4F)cnc23)ccc1C(=O)NCC1CCN(C(=O)C2CC[N+](C)(CC3CNC3)CC2)CC1 (stereo not drawn) [Example 133, N-[[1-[1-(Azetidin-3-ylmethyl)-1-methyl-piperidin-1-ium-4-carbonyl]-4-piperidyl]methyl]-4-[[3-(2,3-difluoro-4-methoxy-phenyl)imidazo[1,2-a]pyrazin-8-yl]amino]-2-ethyl-benzamide bis(2,2,2-trifluoroacetate)] | – | 0.334 µM |
| COc1ccc(-c2cnc3c(Nc4ccc(C(=O)N5CCN(C(=O)[C@@H]6C[C@@H](O)C[N+]6(C)C)CC5)c(C)c4)nccn23)c(F)c1F [Example 55, (2S,4R)-2-(4-(4-((3-(2,3-Difluoro-4-methoxyphenyl)imidazo[1,2-a]pyrazin-8-yl)amino)-2-methylbenzoyl)piperazine-1-carbonyl)-4-hydroxy-1,1-dimethylpyrrolidin-1-ium Formate] | 0.132 µM | – |
| Cc1cc(Nc2nccn3c(-c4ccc(OC(F)F)cc4)cnc23)ccc1C(=O)N(C)CCC1CC[N+](C)(CCCC(=O)O)CC1 (stereo not drawn) [Example 57, 4-[4-[2-[[4-[[3-[4-(Difluoromethoxy)phenyl]imidazo[1,2-a]pyrazin-8-yl]amino]-2-methylbenzoyl]-methylamino]ethyl]-1-methylpiperidin-1-ium-1-yl]butanoic acid Hydrochloride] | 2.18 µM | – |
| CCc1cc(Nc2nccn3c(-c4ccc(OC(F)F)c(F)c4F)cnc23)ccc1C(=O)N1CCN(C(=O)C2CC[N+](C)(CC3CNC3)CC2)CC1 (stereo not drawn) [Example 81, 1-(Azetidin-3-ylmethyl)-4-(4-(4-((3-(4-(difluoromethoxy)-2,3-difluorophenyl)imidazo[1,2-a]pyrazin-8-yl)amino)-2-ethylbenzoyl)piperazine-1-carbonyl)-1-methylpiperidin-1-ium 2,2,2-trifluoroacetate] | 0.107 µM | – |
| CCc1cc(Nc2nccn3c(-c4ccc(OC(F)F)c(F)c4F)cnc23)ccc1C(=O)NCCCCC[N+](C)(C)CC1CNC1 [Example 96, Azetidin-3-ylmethyl-[5-[[4-[[3-[4-(difluoromethoxy)-2,3-difluoro-phenyl]imidazo[1,2-a]pyrazin-8-yl]amino]-2-ethyl-benzoyl]amino]pentyl]-dimethyl-ammonium bis(2,2,2-trifluoroacetate)] | 0.171 µM | – |
| CCc1cc(Nc2nccn3c(-c4ccc(OC)c(F)c4F)cnc23)ccc1C(=O)NCC1CC[N+](C)(Cc2cccnc2)CC1 (stereo not drawn) [Example 140, 4-[[3-(2,3-difluoro-4-methoxy-phenyl)imidazo[1,2-a]pyrazin-8-yl]amino]-2-ethyl-N-[[1-methyl-1-(3-pyridylmethyl)piperidin-1-ium-4-yl]methyl]benzamide; 2,2,2-trifluoroacetate] | – | 0.115 µM |
| CCc1cc(Nc2nccn3c(-c4ccc(OC)c(F)c4F)cnc23)ccc1C(=O)NCCCCC[N+](C)(CCCN)CC(=O)O (stereo not drawn) [Example 104, 3-aminopropyl-(carboxymethyl)-[5-[[4-[[3-(2,3-difluoro-4-methoxy-phenyl)imidazo[1,2-a]pyrazin-8-yl]amino]-2-ethyl-benzoyl]amino]pentyl]-methyl-ammonium Formate] | – | 0.118 µM |
| CCc1cc(Nc2nccn3c(-c4c[nH]nc4C(F)(F)F)cnc23)ccc1C(=O)NCC1CC[N+](C)(CC2CNC2)C1 (stereo not drawn) [Example 138, N-[[1-(Azetidin-3-ylmethyl)-1-methyl-pyrrolidin-1-ium-3-yl]methyl]-2-ethyl-4-[[3-[3-(trifluoromethyl)-1H-pyrazol-4-yl]imidazo[1,2-a]pyrazin-8-yl]amino]benzamide bis(2,2,2-trifluoroacetate)] | 4.14 µM | – |
| C[N+](C)(C)CCN[C@H]1C[C@@H](NC(=O)c2ccc(Nc3nccn4c(-c5c[nH]nc5C(F)(F)F)cnc34)cc2Cl)C1 [Example 108, 2-[[3-[[2-chloro-4-[[3-[3-(trifluoromethyl)-1H-pyrazol-4-yl]imidazo[1,2-a]pyrazin-8-yl]amino]benzoyl]amino]cyclobutyl]amino]ethyl-trimethyl-ammonium Formate] | 1.59 µM | – |

The next lines start with results.

| IC90 [1] | SMILES | IC90 |
| --- | --- | --- |
| 0.108 µM | CCc1cc(Nc2nccn3c(-c4ccc(OC)c(F)c4F)cnc23)ccc1C(=O)NCCCNC(=O)C[C@@H]1CC[N+](C)(CC2CNC2)C1 (stereo partly drawn) [Example 130, N-[3-[[2-[(3S)-1-(Azetidin-3-ylmethyl)-1-methyl-pyrrolidin-1-ium-3-yl]acetyl]amino]propyl]-4-[[3-(2,3-difluoro-4-methoxy-phenyl)imidazo[1,2-a]pyrazin-8-yl]amino]-2-ethyl-benzamide bis(2,2,2-trifluoroacetate)] | – |
| 0.169 µM | CCc1cc(Nc2nccn3c(-c4ccc(OC)c(F)c4F)cnc23)ccc1C(=O)NCC1CC[N+](CCO)(CC2CNC2)CC1 (stereo not drawn) [Example 141, N-[[1-(Azetidin-3-ylmethyl)-1-(2-hydroxyethyl)piperidin-1-ium-4-yl]methyl]-4-[[3-(2,3-difluoro-4-methoxy-phenyl)imidazo[1,2-a]pyrazin-8-yl]amino]-2-ethyl-benzamide 2,2,2-trifluoroacetate] | – |
| 0.342 µM | CCc1cc(Nc2nccn3c(-c4ccc(OC)c(F)c4F)cnc23)ccc1C(=O)N[C@H]1CC[C@H](NC(=O)C[N+](C)(C)C)CC1 [Example 77, Trans-[2-[[4-[[4-[[3-(2,3-Difluoro-4-methoxyphenyl)imidazo[1,2-a]pyrazin-8-yl]amino]-2-ethylbenzoyl]amino]cyclohexyl]amino]-2-oxoethyl]-trimethylazanium formate] | – |
| 0.031 µM | CCc1cc(Nc2nccn3c(-c4ccc(OC)c(F)c4F)cnc23)ccc1C(=O)NCCOCC[N+](C)(C)CC#N [Example 74, N-(Cyanomethyl)-2-(2-(4-((3-(2,3-difluoro-4-methoxyphenyl)imidazo[1,2-a]pyrazin-8-yl)amino)-2-ethylbenzamido)ethoxy)-N,N-dimethylethan-1-aminium Formate] | – |
| 0.144 µM | CCc1cc(Nc2nccn3c(-c4ccc(OC)c(F)c4F)cnc23)ccc1C(=O)NCCCCC[N+](C)(CCCCN)CC(=O)O (stereo not drawn) [Example 105, 4-aminobutyl-(carboxymethyl)-[5-[[4-[[3-(2,3-difluoro-4-methoxy-phenyl)imidazo[1,2-a]pyrazin-8-yl]amino]-2-ethyl-benzoyl]amino]pentyl]-methyl-ammonium Formate] | – |
| 0.336 µM | CCc1cc(Nc2nccn3c(-c4ccc(OC)c(F)c4F)cnc23)ccc1C(=O)NCC1CC[N+](C)(CC2CCCN2)CC1 (stereo not drawn) [Example 142, 4-[[3-(2,3-Difluoro-4-methoxy-phenyl)imidazo[1,2-a]pyrazin-8-yl]amino]-2-ethyl-N-[[1-methyl-1-(pyrrolidin-2-ylmethyl)piperidin-1-ium-4-yl]methyl]benzamide 2,2,2-trifluoroacetate] | – |
| 1.11 µM | CCc1cc(Nc2nccn3c(-c4ccc(OC)c(F)c4F)cnc23)ccc1C(=O)N[C@@H](CNC(=O)C1CC[N+](C)(CC2CNC2)CC1)C(=O)OC (mixture of isomers) [Example 122, Methyl (2S)-3-[[1-(azetidin-3-ylmethyl)-1-methyl-piperidin-1-ium-4-carbonyl]amino]-2-[[4-[[3-(2,3-difluoro-4-methoxy-phenyl)imidazo[1,2-a]pyrazin-8-yl]amino]-2-ethyl-benzoyl]amino]propanoate formate 2,2,2-trifluoroacetate (Mixed Salt)] | – |
| 0.32 µM | CCc1cc(Nc2nccn3c(-c4ccc(OC)c(F)c4F)cnc23)ccc1C(=O)NCC1CC[N+](C)(CC(=O)NCC2CCNC2)CC1 (stereo not drawn) [Example 132, 4-[[3-(2,3-Difluoro-4-methoxy-phenyl)imidazo[1,2-a]pyrazin-8-yl]amino]-2-ethyl-N-[[1-methyl-1-[2-oxo-2-(pyrrolidin-3-ylmethylamino)ethyl]piperidin-1-ium-4-yl]methyl]benzamide bis(2,2,2-trifluoroacetate)] | – |
| 0.168 µM | COc1ccc(-c2cnc3c(Nc4ccc(C(=O)NC5CCCN(C(=O)C[N+](C)(C)C)C5)c(C)c4)nccn23)c(F)c1F (stereo not drawn) [Example 68, 2-(3-(4-((3-(2,3-Difluoro-4-methoxyphenyl)imidazo[1,2-a]pyrazin-8-yl)amino)-2-methylbenzamido)piperidin-1-yl)-N,N,N-trimethyl-2-oxoethan-1-aminium Chloride] | – |
| 0.205 µM | CCc1cc(Nc2nccn3c(-c4ccc(OC)c(F)c4F)cnc23)ccc1C(=O)NCC1CC[N+](C)(CC(=O)O)CC1 (stereo not drawn) [Example 115, 2-[4-[[[4-[[3-(2,3-Difluoro-4-methoxy-phenyl)imidazo[1,2-a]pyrazin-8-yl]amino]-2-ethyl-benzoyl]amino]methyl]-1-methyl-piperidin-1-ium-1-yl]acetic acid 2,2,2-trifluoroacetate] | – |
| 0.166 µM | COc1ccc(-c2cnc3c(Nc4ccc(C(=O)NC5CCN(C(=O)C[N+](C)(C)C)CC5)c(C)c4)nccn23)c(F)c1F [Example 60, 2-(4-(4-((3-(2,3-Difluoro-4-methoxyphenyl)imidazo[1,2-a]pyrazin-8-yl)amino)-2-methylbenzamido)piperidin-1-yl)-N,N,N-trimethyl-2-oxoethan-1-aminium Chloride] | – |
